Laboratory results reported in patent publication US20250154173A1 (Merck Sharp & Dohme LLC, priority 2023, published 2025).
pEC50: −log10 of the molar value.

Target: T1, GST-RIPK1 (recombinant GST-RIPK1 kinase domain (residues 1-327)) (Homo sapiens, UniProt Q13546)
T1 construct: recombinant GST-RIPK1 kinase domain (residues 1-327) enzyme produced from baculovirus-transfected Sf21 cells; host or cells: baculovirus-transfected Sf21 insect cells
T1 sequence (Q13546 1-327): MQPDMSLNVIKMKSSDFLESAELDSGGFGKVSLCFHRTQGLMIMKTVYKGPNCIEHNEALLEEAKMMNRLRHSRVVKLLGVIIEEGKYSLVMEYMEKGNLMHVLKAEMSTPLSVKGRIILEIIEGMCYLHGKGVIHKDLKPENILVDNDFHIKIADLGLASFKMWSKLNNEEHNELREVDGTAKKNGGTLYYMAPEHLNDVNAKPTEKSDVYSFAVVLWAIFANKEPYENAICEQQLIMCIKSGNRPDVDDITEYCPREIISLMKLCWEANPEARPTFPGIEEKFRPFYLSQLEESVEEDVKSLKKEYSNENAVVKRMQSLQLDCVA
Assay: RIPK1-ADP-Glo Enzymatic Assay
Type: biochemical
Settings: ten-point titration, top compound concentration of 100000 nM; 25 nM GST-RIPK1, 300 μM ATP, 3 μM dephosphorylated-MBP; 30 min pre-incubation, 150 min reaction
In short: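 ADP-Glo luminescence quantifies ADP formed over 150 minutes by 25 nM Sf21-produced GST-RIPK1 (1-327) using 300 μM ATP and 3 μM dephosphorylated MBP, following 30-minute compound preincubation at 1% DMSO. Ten-point 1:3 series from 100000 nM gave EC50 via four-parameter sigmoidal regression.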

Row | SMILES | pEC50
1 | N#Cc1cccc(OC2CC3(C2)O[C@@H]2CC[C@@H](c4cnccn4)N2C3=O)c1 (stereo partly drawn) [Example 19.15, 3-{[(5′S,7a′R)-3′-oxo-5′-(pyrazin-2-yl)tetrahydro-3′H-spiro[cyclobutane-1,2′-pyrrolo[2,1-b][1,3]oxazol]-3-yl]oxy}benzonitrile] | 7.74
2 | N#Cc1cc(F)cc(OC2CC3(C2)O[C@@H]2CC[C@@H](c4cnccn4)N2C3=O)c1 (stereo partly drawn) [Example 19.16] | 7.74
3 | O=C1N2[C@@H](CC[C@H]2c2cnccn2)OC12CC(Oc1ccccc1)C2 (stereo partly drawn) [Example 19.17, (5′S,7a′R)-3-phenoxy-5′-(pyrazin-2-yl)tetrahydro-3′H-spiro[cyclobutane-1,2′-pyrrolo[2,1-b][1,3]oxazol]-3′-one] | 7.68
4 | O=C1N2[C@@H](CC[C@H]2c2cnccn2)OC12CC(Oc1cncc(Cl)c1)C2 (stereo partly drawn) [Example 19.18, (5′S,7a′R)-3-[(5-chloropyridin-3-yl)oxy]-5′-(pyrazin-2-yl)tetrahydro-3′H-spiro[cyclobutane-1,2′-pyrrolo[2,1-b][1,3]oxazol]-3′-one] | 7.64
5 | O=C1N2[C@@H](CC[C@H]2c2cnccn2)OC12CC(OCc1csc3ncccc13)C2 (stereo partly drawn) [Example 19.19, (5′S,7a′R)-5′-(pyrazin-2-yl)-3-[(thieno[2,3-b]pyridin-3-yl)methoxy]tetrahydro-3′H-spiro[cyclobutane-1,2′-pyrrolo[2,1-b][1,3]oxazol]-3′-one] | 7.57
6 | Cn1nccc1-c1cc(OC2CC3(C2)O[C@@H]2CC[C@@H](c4cnccn4)N2C3=O)ncn1 (stereo partly drawn) [Example 19.20, (5′S,7a′R)-3-{[6-(1-methyl-1H-pyrazol-5-yl)pyrimidin-4-yl]oxy}-5′-(pyrazin-2-yl)tetrahydro-3′H-spiro[cyclobutane-1,2′-pyrrolo[2,1-b][1,3]oxazol]-3′-one] | 7.89
7 | O=C1N2[C@@H](CC[C@H]2c2cnccn2)OC12CC(Oc1cccnc1)C2 (stereo partly drawn) [Example 19.21, (5′S,7a′R)-5′-(pyrazin-2-yl)-3-[(pyridin-3-yl)oxy]tetrahydro-3′H-spiro[cyclobutane-1,2′-pyrrolo[2,1-b][1,3]oxazol]-3′-one] | 7.57
8 | O=C1N2[C@@H](CC[C@H]2c2cnccn2)OC12CC(Oc1ccc(F)c(F)c1)C2 (stereo partly drawn) [Example 19.22, (5′S,7a′R)-3-(3,4-difluorophenoxy)-5′-(pyrazin-2-yl)tetrahydro-3′H-spiro[cyclobutane-1,2′-pyrrolo[2,1-b][1,3]oxazol]-3′-one] | 7.92
9 | Cc1cccnc1CO[C@H]1C[C@]2(C1)O[C@@H]1CC[C@@H](c3cnccn3)N1C2=O [Example 20.1, (5′S,7a′R)-3-((3-methylpyridin-2-yl)methoxy)-5′-(pyrazin-2-yl)tetrahydro-3′H-spiro[cyclobutane-1,2′-pyrrolo[2,1-b]oxazol]-3′-one] | 6.18
10 | O=C1N2[C@@H](CC[C@H]2c2cnccn2)OC12CC(OCc1ccccn1)C2 (stereo partly drawn) [Example 20.2, (5′S,7a′R)-5′-(pyrazin-2-yl)-3-[(pyridin-2-yl)methoxy]tetrahydro-3′H-spiro[cyclobutane-1,2′-pyrrolo[2,1-b][1,3]oxazol]-3′-one] | 6.71
11 | Cn1cc2cc(COC3CC4(C3)O[C@@H]3CC[C@@H](c5cnccn5)N3C4=O)ccc2n1 (stereo partly drawn) [Example 20.3, (5′S,7a′R)-3-[(2-methyl-2H-indazol-5-yl)methoxy]-5′-(pyrazin-2-yl)tetrahydro-3′H-spiro[cyclobutane-1,2′-pyrrolo[2,1-b][1,3]oxazol]-3′-one] | 6.90
12 | O=C1N2[C@@H](CC[C@H]2c2cnccn2)OC12CC(OCc1ccnc3nncn13)C2 (stereo partly drawn) [Example 20.4, (5′S,7a′R)-5′-(pyrazin-2-yl)-3-[([1,2,4]triazolo[4,3-a]pyrimidin-5-yl)methoxy]tetrahydro-3′H-spiro[cyclobutane-1,2′-pyrrolo[2,1-b][1,3]oxazol]-3′-one] | 6.75
13 | Cc1ncccc1COC1CC2(C1)O[C@@H]1CC[C@@H](c3cnccn3)N1C2=O (stereo partly drawn) [Example 20.5, (5′S,7a′R)-3-[(2-methylpyridin-3-yl)methoxy]-5′-(pyrazin-2-yl)tetrahydro-3′H-spiro[cyclobutane-1,2′-pyrrolo[2,1-b][1,3]oxazol]-3′-one] | 7.13
14 | O=C1N2[C@@H](CC[C@H]2c2cnccn2)OC12CC(OCc1cccnc1C(F)(F)F)C2 (stereo partly drawn) [Example 20.6, (5′S,7a′R)-5′-(pyrazin-2-yl)-3-{[2-(trifluoromethyl)pyridin-3-yl]methoxy}tetrahydro-3′H-spiro[cyclobutane-1,2′-pyrrolo[2,1-b][1,3]oxazol]-3′-one] | 7.07
15 | O=C1N2[C@@H](CC[C@H]2c2cnccn2)OC12CC(OCc1ccc3scnc3c1)C2 (stereo partly drawn) [Example 20.7, (5′S,7a′R)-3-[(1,3-benzothiazol-5-yl)methoxy]-5′-(pyrazin-2-yl)tetrahydro-3′H-spiro[cyclobutane-1,2′-pyrrolo[2,1-b][1,3]oxazol]-3′-one] | 7.07
16 | N#CC1(c2ccc(COC3CC4(C3)O[C@@H]3CC[C@@H](c5cnccn5)N3C4=O)cc2)CC1 (stereo partly drawn) [Example 20.8, 1-[4-({[(5′S,7a′R)-3′-oxo-5′-(pyrazin-2-yl)tetrahydro-3′H-spiro[cyclobutane-1,2′-pyrrolo[2,1-b][1,3]oxazol]-3-yl]oxy}methyl)phenyl]cyclopropane-1-carbonitrile] | 6.63
17 | Cn1ccc([C@@H]2CC[C@H]3OC4(CC(Oc5cncc(Cl)c5)C4)C(=O)N32)n1 (stereo partly drawn) [Example 20.9, (5′S,7a′R)-3-[(5-chloropyridin-3-yl)oxy]-5′-(1-methyl-1H-pyrazol-3-yl)tetrahydro-3′H-spiro[cyclobutane-1,2′-pyrrolo[2,1-b][1,3]oxazol]-3′-one] | 7.08
18 | O=C1N2[C@H](O[C@]13C[C@@H](OCc1ccccc1)C3)[C@@H](O)C[C@H]2c1cnccn1 [Example 21.1, (1s,3S,5′S,7′S,7a′R)-3-(benzyloxy)-7′-hydroxy-5′-(pyrazin-2-yl)tetrahydro-3′H-spiro[cyclobutane-1,2′-pyrrolo[2,1-b]oxazol]-3′-one] | 6.59
19 | O=C1N2[C@H](O[C@]13C[C@@H](OCc1ccccc1)C3)[C@H](O)C[C@H]2c1cnccn1 [Example 21.2, (1s,3S,5′S,7′R,7a′R)-3-(benzyloxy)-7′-hydroxy-5′-(pyrazin-2-yl)tetrahydro-3′H-spiro[cyclobutane-1,2′-pyrrolo[2,1-b]oxazol]-3′-one] | 6.97
20 | O=C1N2[C@@H](CC[C@H]2c2cnccn2)O[C@]12C[C@@H](OCc1ccccc1Cl)C2 [Example 22.1, (1S,3S,5′S,7a′R)-3-((2-chlorobenzyl)oxy)-5′-(pyrazin-2-yl)tetrahydro-3′H-spiro[cyclobutane-1,2′-pyrrolo[2,1-b]oxazol]-3′-one] | 7.74
21 | Cc1cc(Cl)cnc1COC1CC2(C1)O[C@@H]1CC[C@@H](c3cnccn3)N1C2=O (stereo partly drawn) [Example 22.3, (5′S,7a′R)-3-((5-chloro-3-methylpyridin-2-yl)methoxy)-5′-(pyrazin-2-yl)tetrahydro-3′H-spiro[cyclobutane-1,2′-pyrrolo[2,1-b]oxazol]-3′-one] | 7.48
22 | O=C1N2[C@@H](CC[C@H]2c2cnccn2)OC12CC(OCc1cccs1)C2 (stereo partly drawn) [Example 22.4, (5′S,7a′R)-5′-(pyrazin-2-yl)-3-(thiophen-2-ylmethoxy)tetrahydro-3′H-spiro[cyclobutane-1,2′-pyrrolo[2,1-b]oxazol]-3′-one] | 6.84
23 | O=C1N2[C@@H](CC[C@H]2c2cnccn2)OC12CC(OCc1cccc(Cl)c1)C2 (stereo partly drawn) [Example 22.6, (5′S,7a′R)-3-[(3-chlorophenyl)methoxy]-5′-(pyrazin-2-yl)tetrahydro-3′H-spiro[cyclobutane-1,2′-pyrrolo[2,1-b][1,3]oxazol]-3′-one] | 7.82
24 | Cc1nnc(-c2ccc(COC3CC4(C3)O[C@@H]3CC[C@@H](c5cnccn5)N3C4=O)cc2)o1 (stereo partly drawn) [Example 22.9, (5′S,7a′R)-3-{[4-(5-methyl-1,3,4-oxadiazol-2-yl)phenyl]methoxy}-5′-(pyrazin-2-yl)tetrahydro-3′H-spiro[cyclobutane-1,2′-pyrrolo[2,1-b][1,3]oxazol]-3′-one] | 7.43
